Measured values reported in patent US20150175545A1, “Preparation Method of Fluoro-Substituted Deuterated Diphenylurea” (SUZHOU ZELGEN BIOPHARMACEUTICAL CO., LTD, priority 2012, published 2015).
Where “and” joins values, the source holds several entries; their conditions need not be identical. Equal values may be shown once. Read-outs that look alike come from different tables or passages of the source.

Columns and labels:
[1] = Pharmacokinetic evaluation of CM4309.TsOH and CM4309.H2O in Beagle dogs; assay type: in vivo; details: for AUC(0-t) / Cmax / Tmax / AUClast: 2.5 mg/kg (calculated by CM4309) oral in capsule, 2×2 crossover, CM4309 in plasma
Experimental: Four female Beagle dogs, 7-9 months old, weighing about 8 kg, were randomly separated into two groups and two dogs in each group, and fasted overnight. The dogs were administrated orally at a dose of 2.5 mg/kg (calculated by CM4309) of CM4309.TsOH or CM4309.H2O in capsule with 2×2 crossover design. Blood samples were collected before administration and at 0.25, 0.5, 1, 2, 4, 6, 8, 12, 24, 36 and 48 h after administration. The blood samples were centrifuged for 10 minutes at 3500 rpm to separate the plasma. The concentration of CM4309 in plasma was measured by LC/MS/MS to compare the PK difference between CM4309 salts and CM4309 (see Table 2).

[2] = Pharmacokinetic evaluation of CM4309.TsOH, CM4309.HCl and CM4309.H2O in SD rats; assay type: in vivo; details: for HL_Lambda_z / AUCINF_obs / AUClast / Cmax / MRTINF_obs / Tmax / AUC(0-t) / AUC(0-inf) / MRT inf: 3 mg/kg (calculated by CM4309) intragastric, suspension in 0.5% CMC, CM4309 in plasma; for AUClast (Area Under Curve, Plasma Exposure) relative to CM4309.H2O / Cmax relative to CM4309.H2O: SD rats, 3 mg/kg intragastric, ratio to CM4309.H2O; for AUC(0-inf): read-out: AUCINF_obs; for MRT inf: read-out: MRTINF_obs
Experimental: Twelve male SD rats, weighing about 170 g, were randomly separated into […] and four rats in each group, and fasted overnight. The rats were administrated intragastric ally at a dose of 3 mg/kg (in a concentration of 1 mg/mL calculated by CM4309, and suspended in 0.5% CMC in purified water) of CM4309.TsOH, CM4309.HCl or CM4309.H2O. After administration, blood samples were collected at 0.25, 0.5, 1, 2, 4, 6, 8, 12, 24, 36 and 48 h. The blood samples were centrifuged for 5 minutes at 5000 rpm to separate the plasma. The concentration of CM4309 in plasma was measured by LC/MS/MS to compare the PK difference between CM4309 salts and CM4309 (see Table 1).

[3] = Beagle dogs, 2.5 mg/kg oral in capsule, ratio to CM4309.H2O
[4] = individual dog, p-toluenesulfonate, 2.5 mg/kg
[5] = individual rat, p-toluenesulfonate, 3 mg/kg
[6] = male, SD, rat, plasma, po, 3 mg/kg, Mean of 4 rats
[7] = male, SD, rat, plasma, po, 3 mg/kg, Mean of 4 rats, read-out: Cmax
[8] = male, SD, rat, plasma, po, 3 mg/kg, Mean of 4 rats, read-out: Tmax
[9] = male, SD, rat, plasma, po, 3 mg/kg, individual rat
[10] = male, SD, rat, plasma, po, 3 mg/kg, individual rat, read-out: Tmax
[11] = individual rat, hydrochloride, 3 mg/kg

Cc1ccc(S(=O)(=O)O)cc1.[2H]C([2H])([2H])NC(=O)c1cc(Oc2ccc(NC(=O)Nc3ccc(Cl)c(C(F)(F)F)c3)c(F)c2)ccn1 [CM4309.TsOH, 4-(4-(3-(4-chloro-3-(trifluoromethyl)phenyl]ureido)-3-fluorophenoxy)-N-(methyl-d3)picolinamide p-toluenesulfonate]
AUClast relative to CM4309.H2O [1, 3]: 12.1 folds
Cmax relative to CM4309.H2O [1, 3]: 26 folds
AUC(0-t) ([1]; female, Beagle, dog, plasma, po, 2.5 mg/kg, Mean of 4 dogs): 4870 ng·h/mL
Cmax ([1]; female, Beagle, dog, plasma, po, 2.5 mg/kg, Mean of 4 dogs, read-out: Cmax): 728 ng/mL
AUC(0-t) ([1]; female, Beagle, dog, plasma, po, 2.5 mg/kg, individual dog): 5240 ng·h/mL
Tmax ([1]; female, Beagle, individual dog, read-out: Tmax): 2 h
AUClast [1, 4]: 5362 ng·h/mL and 5045 ng·h/mL and 3827 ng·h/mL
Cmax [1, 4]: 996 ng/mL and 437 ng/mL and 483 ng/mL
HL_Lambda_z ([2]; Mean of 4 rats): 7.91 h
AUClast (Area Under Curve, Plasma Exposure) relative to CM4309.H2O [2]: 11.2 folds
Cmax relative to CM4309.H2O [2]: 10.7 folds
AUCINF_obs [2, 5]: 5631 ng·h/mL and 7380 ng·h/mL and 10651 ng·h/mL
AUClast [2, 5]: 5542 ng·h/mL and 7237 ng·h/mL and 10406 ng·h/mL
Cmax [2, 5]: 312 ng/mL and 402 ng/mL and 518 ng/mL and 696 ng/mL
HL_Lambda_z [2, 5]: 8.55 h and 7.37 h and 7.48 h and 8.25 h
MRTINF_obs [2, 5]: 12.05 h and 12.72 h and 13.6 h
Tmax [2, 5]: 4 h
AUC(0-t) [2, 6]: 7180 ng·h/mL
AUC(0-inf) [2, 6]: 7340 ng·h/mL
Cmax [2, 7]: 482 ng/mL
MRT inf [2, 6]: 13.3 h
Tmax [2, 8]: 5.5 h
AUC(0-t) [2, 9]: 5540 ng·h/mL
AUC(0-inf) [2, 9]: 5700 ng·h/mL
MRT inf [2, 9]: 14.8 h
Tmax [2, 10]: 6 h

[2H]C([2H])([2H])NC(=O)c1cc(Oc2ccc(NC(=O)Nc3ccc(Cl)c(C(F)(F)F)c3)c(F)c2)ccn1 [CM4309.H2O]
AUClast ([1]; Mean of 4 dogs): 404 ng·h/mL
Cmax ([1]; Mean of 4 dogs): 28 ng/mL
Tmax ([1]; Mean of 4 dogs): 20 h
AUClast ([1]; individual dog, 2.5 mg/kg): 319 ng·h/mL and 829 ng·h/mL and 243 ng·h/mL and 224 ng·h/mL
Cmax ([1]; individual dog, 2.5 mg/kg): 34.6 ng/mL and 50 ng/mL and 11.1 ng/mL and 16.4 ng/mL
Tmax ([1]; individual dog, 2.5 mg/kg): 24 h and 8 h
AUCINF_obs ([2]; Mean of 4 rats): 664 ng·h/mL
AUClast ([2]; Mean of 4 rats): 643 ng·h/mL
Cmax ([2]; Mean of 4 rats): 45.2 ng/mL
HL_Lambda_z ([2]; Mean of 4 rats): 7.62 h
MRTINF_obs ([2]; Mean of 4 rats): 13.55 h
Tmax ([2]; Mean of 4 rats): 6.5 h
AUCINF_obs ([2]; individual rat, 3 mg/kg): 701 ng·h/mL and 827 ng·h/mL and 657 ng·h/mL and 470 ng·h/mL
AUClast ([2]; individual rat, 3 mg/kg): 675 ng·h/mL and 806 ng·h/mL and 635 ng·h/mL and 459 ng·h/mL
Cmax ([2]; individual rat, 3 mg/kg): 52.6 ng/mL and 53.3 ng/mL and 42.9 ng/mL and 31.8 ng/mL
HL_Lambda_z ([2]; individual rat, 3 mg/kg): 8.73 h and 9.26 h and 6.41 h and 6.08 h
MRTINF_obs ([2]; individual rat, 3 mg/kg): 14.87 h and 14.06 h and 13 h and 12.25 h
Tmax ([2]; individual rat, 3 mg/kg): 6 h and 4 h and 8 h

Cl.[2H]C([2H])([2H])NC(=O)c1cc(Oc2ccc(NC(=O)Nc3ccc(Cl)c(C(F)(F)F)c3)c(F)c2)ccn1 [CM4309.HCl, 4-(4-(3-(4-chloro-3-(trifluoromethyl)phenyl]ureido)-3-fluorophenoxy)-N-(methyl-d3)picolinamide hydrochloride]
HL_Lambda_z ([2]; Mean of 4 rats): 8.25 h
AUClast (Area Under Curve, Plasma Exposure) relative to CM4309.H2O [2]: 8.7 folds
Cmax relative to CM4309.H2O [2]: 8.4 folds
AUCINF_obs [2, 11]: 6634 ng·h/mL and 7151 ng·h/mL and 4379 ng·h/mL
AUClast [2, 11]: 6514 ng·h/mL and 7021 ng·h/mL and 4258 ng·h/mL
Cmax [2, 11]: 457 ng/mL and 460 ng/mL and 281 ng/mL
HL_Lambda_z [2, 11]: 8.17 h and 7.77 h and 8.32 h and 8.74 h
MRTINF_obs [2, 11]: 12.93 h and 12.58 h and 15.62 h
Tmax [2, 11]: 8 h
Tmax ([2]; male, SD, in vivo, po, individual rat, read-out: Tmax): 4 h
AUC(0-t) [2, 6]: 5570 ng·h/mL
AUC(0-inf) [2, 6]: 5690 ng·h/mL
Cmax [2, 7]: 379 ng/mL
MRT inf [2, 6]: 13.8 h
Tmax [2, 8]: 5.5 h
AUC(0-t) [2, 9]: 4490 ng·h/mL
AUC(0-inf) [2, 9]: 4610 ng·h/mL
Cmax ([2]; male, SD, rat, plasma, po, 3 mg/kg, individual rat, read-out: Cmax): 316 ng/mL
MRT inf [2, 9]: 13.9 h
Tmax [2, 10]: 6 h
